The supplement of paper PMC11451515

Tested on: P12-Ichikawa
Experiment: cell viability relative to DMSO control; higher = less cytotoxic
Settings: 48 h
Summary of the method: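 Library compounds in DMSO were pin-dosed in an 11-point threefold series (47 μM to 0.79 nM) onto leukemia cells in 1536-well plates (5 μl). Plates held 500 cells/well of NOMO1 or SEM or 1000 cells/well of P12-Ichikawa, each adapted for at least four passages in each medium. Luminescence was read with CellTiter-Glo One after 48 h at 37°C. Viability means the per-plate percentage relative to DMSO wells, using cell-free wells as background.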

[1] = HPLM + 10% dialyzed FBS, 0.000781 µM
[2] = HPLM + 10% dialyzed FBS, 0.00234 µM
[3] = HPLM + 10% dialyzed FBS, 0.00702 µM
[4] = HPLM + 10% dialyzed FBS, 0.0211 µM
[5] = HPLM + 10% dialyzed FBS, 0.0632 µM
[6] = HPLM + 10% dialyzed FBS, 0.19 µM
[7] = HPLM + 10% dialyzed FBS, 0.569 µM
[8] = HPLM + 10% dialyzed FBS, 1.71 µM
[9] = HPLM + 10% dialyzed FBS, 5.12 µM
[10] = HPLM + 10% dialyzed FBS, 15.4 µM
[11] = HPLM + 10% dialyzed FBS, 46.1 µM
[12] = RPMI 5 mM glucose + 10% FBS, 0.000781 µM
[13] = RPMI 5 mM glucose + 10% FBS, 0.00234 µM
[14] = RPMI 5 mM glucose + 10% FBS, 0.00702 µM
[15] = RPMI 5 mM glucose + 10% FBS, 0.0211 µM
[16] = RPMI 5 mM glucose + 10% FBS, 0.0632 µM
[17] = RPMI 5 mM glucose + 10% FBS, 0.19 µM
[18] = RPMI 5 mM glucose + 10% FBS, 0.569 µM
[19] = RPMI 5 mM glucose + 10% FBS, 1.71 µM
[20] = RPMI 5 mM glucose + 10% FBS, 5.12 µM
[21] = RPMI 5 mM glucose + 10% FBS, 15.4 µM
[22] = RPMI 5 mM glucose + 10% FBS, 46.1 µM
[23] = RPMI 5 mM glucose + 10% dialyzed FBS, 0.000781 µM
[24] = RPMI 5 mM glucose + 10% dialyzed FBS, 0.00234 µM
[25] = RPMI 5 mM glucose + 10% dialyzed FBS, 0.00702 µM
[26] = RPMI 5 mM glucose + 10% dialyzed FBS, 0.0211 µM
[27] = RPMI 5 mM glucose + 10% dialyzed FBS, 0.0632 µM
[28] = RPMI 5 mM glucose + 10% dialyzed FBS, 0.19 µM
[29] = RPMI 5 mM glucose + 10% dialyzed FBS, 0.569 µM
[30] = RPMI 5 mM glucose + 10% dialyzed FBS, 1.71 µM
[31] = RPMI 5 mM glucose + 10% dialyzed FBS, 5.12 µM
[32] = RPMI 5 mM glucose + 10% dialyzed FBS, 15.4 µM
[33] = RPMI 5 mM glucose + 10% dialyzed FBS, 46.1 µM

SMILES	cell viability [1] [%]	cell viability [2] [%]	cell viability [3] [%]	cell viability [4] [%]	cell viability [5] [%]	cell viability [6] [%]	cell viability [7] [%]	cell viability [8] [%]	cell viability [9] [%]	cell viability [10] [%]	cell viability [11] [%]	cell viability [12] [%]	cell viability [13] [%]	cell viability [14] [%]	cell viability [15] [%]	cell viability [16] [%]	cell viability [17] [%]	cell viability [18] [%]	cell viability [19] [%]	cell viability [20] [%]	cell viability [21] [%]	cell viability [22] [%]	cell viability [23] [%]	cell viability [24] [%]	cell viability [25] [%]	cell viability [26] [%]	cell viability [27] [%]	cell viability [28] [%]	cell viability [29] [%]	cell viability [30] [%]	cell viability [31] [%]	cell viability [32] [%]	cell viability [33] [%]
CC(C)(C)NC(=O)[C@@H]1CN(Cc2cccnc2)CCN1C[C@@H](O)C[C@@H](Cc1ccccc1)C(=O)N[C@H]1c2ccccc2C[C@H]1O.O=S(=O)(O)O	102	114	115	120	122	115	121	114	112	104	72.6	92.1	103	99.2	111	116	116	116	117	109	98	66.1	105	117	119	123	123	119	121	126	111	99.4	59.2
COC(=O)[C@@H](N)CCCNC(=N)N[N+](=O)[O-]	94.6	102	104	98.4	111	98.1	110	107	107	103	115	85.4	96.7	99	94	105	98.5	114	103	105	99.3	105	85.9	93	90.7	97.5	99.2	91.5	99.7	98.6	95.9	92	94
CO[C@@H]1C(N(C)C(=O)c2ccccc2)C[C@H]2O[C@]1(C)n1c3ccccc3c3c4c(c5c6ccccc6n2c5c31)C(=O)NC4=O (stereo partly drawn)	84.9	88.1	93.3	92.3	91	97.7	99	91.2	90	46	25.9	78.8	87.8	88.7	90.9	97.4	87	84.8	90.2	73.4	27.1	32.5	78.9	84.4	91	91.9	82.9	90.1	83	84.8	87.8	23.2	32.7
CN(C)CCN(Cc1ccc(Cl)cc1)c1ccccn1.Cl	89	97.1	95.9	97.1	96.9	94.9	97.5	101	95.2	96.4	101	80.3	80.4	85.4	95.1	80.5	87.9	90.4	87.7	90.4	85.2	82.4	83	82.3	84.4	87.9	84.2	79.2	82.4	80.3	83.3	78.8	73.2
O=C1N\2CCC3=C([NH]C4=C3C=CC=C4)C2=N/C5=CC=CC=C15	119	120	128	126	129	130	129	129	132	113	92.3																						
COC1=CC=C(C=C1)C2CC(=N/N2C3=CC=C(C=C3)[S+](N)([O-])=O)\C4=CC=CC=C4 (stereo not drawn)	95.3	91.6	102	102	99.5	108	108	83.8	63.1	4.53	2.18	101	90	94	94.4	106	89.6	99.8	67.8	42	3.73	1.01	85.6	96.2	96.6	100	95.9	85.9	91.4	65.8	35.8	4.09	1.97
O=C(NNC(=O)c1ccc(CN[S+](=O)([O-])c2ccc(F)c(Cl)c2)cc1)c1ccccc1	97.4	106	104	99	109	107	107	109	113	105	113	99.8	101	98.7	96.5	112	100	106	98.6	91.6	114	105	87	98.3	98.3	102	103	98.1	102	103	103	107	101
C#Cc1cccc(Nc2ncnc3cc(OC)c(OCCCCCCC(=O)NO)cc23)c1	126	118	121	124	105	69.2	29.8	8.83	6.65	6.4	2.39																						
O=C(CCCCCCC(=O)Nc1ccccc1)NO	87.9	99.3	100	98.4	110	109	105	98.8	39	5.48	3.81	91.9	97	108	107	110	104	111	96.8	23.3	4.38	3.81	92.4	100	98.1	109	107	103	102	95.6	19.7	5.15	3.53
